From patent US20150031668A1, “CHROMAN DERIVATIVES AS TRPM8 INHIBITORS” (AMGEN INC., priority 2013, published 2015)
Where a name gives a salt, the structure may show the parent alone.

Molecular target: T1, human TRPM8 (Homo sapiens, UniProt Q7Z2W7)
T1 construct: expressed in transfected cells; host or cells: Chinese hamster ovary (CHO) cells, T-REx tetracycline-inducible expression system (Invitrogen); co-transfected with pcDNA3.1 aequorin
Experiment: Luminescence readout assay for measuring intracellular calcium (aequorin, CHO cells expressing human TRPM8; icilin, L-menthol or cold activation)
Format: cell-based
Conditions: CHO cells expressing human TRPM8, icilin activation (1 μM), aequorin luminescence; read-out: hTRPM8 IC50
Method in brief: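 Activation was by 1 μM icilin, 100 μM L-menthol (test compound 2.5 min ahead) or cold buffer below 10° C (compound 1 min ahead). Calcium rise measured as aequorin luminescence in CHO cells with tetracycline-inducible human TRPM8.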

T1 sequence (Q7Z2W7 whole entry): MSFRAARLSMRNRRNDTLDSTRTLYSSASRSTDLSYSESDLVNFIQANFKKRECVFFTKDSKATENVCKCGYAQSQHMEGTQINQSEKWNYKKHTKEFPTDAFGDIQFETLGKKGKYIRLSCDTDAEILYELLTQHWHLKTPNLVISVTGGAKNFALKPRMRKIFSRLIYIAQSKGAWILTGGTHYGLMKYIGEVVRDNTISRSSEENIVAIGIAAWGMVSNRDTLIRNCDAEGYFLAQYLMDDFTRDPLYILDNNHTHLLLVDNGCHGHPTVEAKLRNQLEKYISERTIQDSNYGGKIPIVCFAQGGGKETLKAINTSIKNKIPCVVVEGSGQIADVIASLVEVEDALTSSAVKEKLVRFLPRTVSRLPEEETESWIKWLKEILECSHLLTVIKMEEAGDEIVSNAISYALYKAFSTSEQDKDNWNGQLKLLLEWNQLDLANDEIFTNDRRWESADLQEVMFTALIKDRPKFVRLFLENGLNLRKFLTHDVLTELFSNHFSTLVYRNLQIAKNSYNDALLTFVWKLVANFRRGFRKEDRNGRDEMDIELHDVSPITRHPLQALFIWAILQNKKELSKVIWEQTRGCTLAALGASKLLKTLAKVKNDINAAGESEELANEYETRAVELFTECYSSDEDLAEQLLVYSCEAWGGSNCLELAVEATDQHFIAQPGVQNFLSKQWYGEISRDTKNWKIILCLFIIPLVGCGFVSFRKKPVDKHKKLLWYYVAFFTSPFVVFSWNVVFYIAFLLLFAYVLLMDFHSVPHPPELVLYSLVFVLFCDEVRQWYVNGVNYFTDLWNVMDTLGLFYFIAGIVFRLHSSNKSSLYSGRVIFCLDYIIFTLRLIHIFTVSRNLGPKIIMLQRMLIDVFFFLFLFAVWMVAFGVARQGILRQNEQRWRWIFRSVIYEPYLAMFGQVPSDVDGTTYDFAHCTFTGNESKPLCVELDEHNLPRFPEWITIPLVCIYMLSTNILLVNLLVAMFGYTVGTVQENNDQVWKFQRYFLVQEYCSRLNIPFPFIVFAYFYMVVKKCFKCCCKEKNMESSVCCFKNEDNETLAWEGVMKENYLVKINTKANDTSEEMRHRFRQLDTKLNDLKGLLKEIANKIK

IC50 | SMILES
1.19 µM | Cc1nnc(-c2cccc(-c3ccc([C@@]4(NC(=O)c5ccc(F)cc5)CCOc5cccnc54)cc3)c2)o1 [Example 150, (S)-4-fluoro-N-(4-(3′-(5-methyl-1,3,4-oxadiazol-2-yl)-[1,1′-biphenyl]-4-yl)-3,4-dihydro-2H-pyrano[3,2-b]pyridin-4-yl)benzamide]
0.112 µM | N#Cc1ccc(-c2ccc([C@@]3(NC(=O)c4ccc(F)cc4)CCOc4cccnc43)cc2)cc1 [Example 153, (S)—N-(4-(4′-cyano-[1,1′-biphenyl]-4-yl)-3,4-dihydro-2H-pyrano[3,2-b]pyridin-4-yl)-4-fluorobenzamide]
1.25 µM | CC(=O)Nc1ccc(-c2ccc([C@@]3(NC(=O)c4ccc(F)cc4)CCOc4cccnc43)cc2)cc1 [Example 121, (S)-N-(4-(4′-acetamido-[1,1′-biphenyl]-4-yl)-3,4-dihydro-2H-pyrano[3,2-b]pyridin-4-yl)-4-fluorobenzamide]
0.021 µM | COC(=O)c1ccnc(C(=O)N[C@]2(c3ccc(OC(F)(F)F)c(F)c3)CCOc3cccnc32)c1 [Example 201, (S)-methyl 2-((4-(3-fluoro-4-(trifluoromethoxy)phenyl)-3,4-dihydro-2H-pyrano[3,2-b]pyridin-4-yl)carbamoyl) isonicotinate]
0.054 µM | O=C(Nc1cccnc1)N[C@]1(c2ccc(OC(F)(F)F)c(F)c2)CCOc2cccnc21 [Example 92, (S)-1-(4-(3-fluoro-4-(trifluoromethoxy)phenyl)-3,4-dihydro-2H-pyrano[3,2-b]pyridin-4-yl)-3-(pyridin-3-yl)urea]
0.0587 µM | Cn1ccc(C(=O)N[C@]2(c3ccc(OC(F)(F)F)cc3)CCOc3cccnc32)n1 [Example 227, (S)-1-methyl-N-(4-(4-(trifluoromethoxy)phenyl)-3,4-dihydro-2H-pyrano[3,2-b]pyridin-4-yl)-1H-pyrazole-3-carboxamide formate]
0.022 µM | O=C(Nc1cccnc1Br)N[C@]1(c2ccc(OC(F)(F)F)c(F)c2)CCOc2cccnc21 [Example 93, (S)-1-(2-bromopyridin-3-yl)-3-(4-(3-fluoro-4-(trifluoromethoxy)phenyl)-3,4-dihydro-2H-pyrano[3,2-b]pyridin-4-yl)urea]
0.005 µM | O=C1CCc2cc(C(=O)N[C@]3(c4ccc(C(F)(F)F)cc4)CCOc4cccnc43)ccc2N1 [Example 33, (S)-2-oxo-N-(4-(4-(trifluoromethyl)phenyl)-3,4-dihydro-2H-pyrano[3,2-b]pyridin-4-yl)-1,2,3,4-tetrahydroquinoline-6-carboxamide]
0.754 µM | COC(=O)c1ccc(S(=O)(=O)N[C@]2(c3ccc(OC(F)(F)F)c(F)c3)CCOc3cccnc32)cc1 [Example 286, (S)-methyl 4-(N-(4-(3-fluoro-4-(trifluoromethoxy)phenyl)-3,4-dihydro-2H-pyrano[3,2-b]pyridin-4-yl)sulfamoyl)benzoate]
0.475 µM | O=C(N[C@]1(c2ccc(OC(F)(F)F)cc2F)CCOc2cccnc21)c1ccc(=O)[nH]c1 [Example 173, (S)-N-(4-(2-fluoro-4-(trifluoromethoxy)phenyl)-3,4-dihydro-2H-pyrano[3,2-b]pyridin-4-yl)-6-oxo-1,6-dihydropyridine-3-carboxamide]
0.134 µM | O=C(Nc1cnccn1)N[C@]1(c2ccc(OC(F)(F)F)c(F)c2)CCOc2cccnc21 [Example 82, (S)-1-(4-(3-fluoro-4-(trifluoromethoxy)phenyl)-3,4-dihydro-2H-pyrano[3,2-b]pyridin-4-yl)-3-(pyrazin-2-yl)urea]
0.23 µM | O=C(Nc1cnccc1Br)N[C@]1(c2ccc(OC(F)(F)F)c(F)c2)CCOc2cccnc21 [Example 94, (S)-1-(4-bromopyridin-3-yl)-3-(4-(3-fluoro-4-(trifluoromethoxy)phenyl)-3,4-dihydro-2H-pyrano[3,2-b]pyridin-4-yl)urea]
0.021 µM | O=C(NC1(c2ccc(C(F)(F)F)cc2)CCOc2cccnc21)c1ccc2c(c1)CNC2=O (centres unmarked) [Example 80, 1-oxo-N-(4-(4-(trifluoromethyl)phenyl)-3,4-dihydro-2H-pyrano[3,2-b]pyridin-4-yl)isoindoline-5-carboxamide]
0.03 µM | O=C(N[C@]1(c2ccc(OC(F)(F)F)cc2)CCOc2cccnc21)c1nccc2ccccc12 [Example 247, (S)-N-(4-(4-(trifluoromethoxy)phenyl)-3,4-dihydro-2H-pyrano[3,2-b]pyridin-4-yl)isoquinoline-1-carboxamide formate]
0.156 µM | O=C(N[C@]1(c2ccc(-c3ccc(N4CCOCC4)cc3)cc2)CCOc2cccnc21)c1ccc(F)cc1 [Example 133, (S)-4-fluoro-N-(4-(4′-morpholino-[1,1′-biphenyl]-4-yl)-3,4-dihydro-2H-pyrano[3,2-b]pyridin-4-yl)benzamide]
0.163 µM | O=C(N[C@]1(c2ccc(OC(F)(F)F)c(F)c2)CCOc2cccnc21)c1cc(Cl)on1 [Example 200, (S)-5-chloro-N-(4-(3-fluoro-4-(trifluoromethoxy)phenyl)-3,4-dihydro-2H-pyrano[3,2-b]pyridin-4-yl) isoxazole-3-carboxainide]
0.001 µM | O=C(N[C@]1(c2ccc(OC(F)(F)F)c(F)c2)CCOc2cccnc21)c1cc(F)c(O)c(F)c1 [Example 207, (S)-3,5-difluoro-N-(4-(3-fluoro-4-(trifluoromethoxy)phenyl)-3,4-dihydro-2H-pyrano[3,2-b]pyridin-4-yl)-4-hydroxybenzamide]
0.008 µM | Cn1ncc2cc(C(=O)N[C@]3(c4ccc(C(F)(F)F)cc4)CCOc4cccnc43)ccc21 [Example 44, (S)-1-methyl-N-(4-(4-(trifluoromethyl)phenyl)-3,4-dihydro-2H-pyrano[3,2-b]pyridin-4-yl)-1H-indazole-5-carboxamide]
0.0521 µM | O=C(N[C@]1(c2ccc(OC(F)(F)F)cc2)CCOc2cccnc21)c1cnn2cccnc12 [Example 244, (S)-N-(4-(4-(trifluoromethoxy)phenyl)-3,4-dihydro-2H-pyrano[3,2-b]pyridin-4-yl)pyrazolo[1,5-a] pyrimidine-3-carboxamide formate]
2.62 µM | O=C(N[C@]1(c2ccc(C(F)(F)F)cc2)CCOc2cccnc21)c1ccnnc1 [Example 37, (S)-N-(4-(4-(trifluoromethyl)phenyl)-3,4-dihydro-2H-pyrano[3,2-b]pyridin-4-yl)pyridazine-4-carboxamide]
0.014 µM | Cn1cc2ccc(C(=O)N[C@]3(c4ccc(OC(F)(F)F)cc4)CCOc4cccnc43)cc2n1 [Example 265, (S)-2-methyl-N-(4-(4-(trifluoromethoxy)phenyl)-3,4-dihydro-2H-pyrano[3,2-b]pyridin-4-yl)-2H-indazole-6-carboxamide formate]
0.0166 µM | O=C(N[C@]1(c2ccc(OC(F)(F)F)cc2)CCOc2cccnc21)c1cn2ncccc2n1 [Example 243, (S)-N-(4-(4-(trifluoromethoxy)phenyl)-3,4-dihydro-2H-pyrano[3,2-b]pyridin-4-yl)imidazo[1,2-b] pyridazine-2-carboxamide formate]
0.054 µM | CCOC(=O)c1cc(C(=O)N[C@]2(c3ccc(OC(F)(F)F)c(F)c3)CCOc3cccnc32)c[nH]1 [Example 187, (S)-ethyl 4-((4-(3-fluoro-4-(trifluoromethoxy)phenyl)-3,4-dihydro-2H-pyrano[3,2-b]pyridin-4-yl)carbamoyl)-1H-pyrrole-2-carboxylate]
